Several values for one entry are separate records, joined by “and”; a condition that tells them apart may be missing. Equal entries are not always repeated.
What was measured:
CYP2E1 = test system: CYP2E1; set-up: method as in Diesinger et al., 2020; settings: ref Diesinger et al., 2020, cited from earlier work; for Inhibition of CYP2E1 (in words): in vitro experiments
[1] = test system: HFD‐induced NASH rat model (serum); assay: Liver enzyme activities and bilirubin in serum, NASH rat model; format: in vivo, Wistar rats; settings: for Decrease in serum bilirubin level compared to disease group / Decrease in γ‐GT enzymatic activity compared to disease group / Reduction of the effect of HFD on γ‐GT activity: UDCA 40 mg/kg b.w.; for Decrease in γ‐GT enzymatic activity compared to disease group / Reduction of the effect of HFD on γ‐GT activity: average over doses (I‐ol, I‐an); for Decrease in ALT enzymatic activity compared to disease group / Reduction of the effect of HFD on ALT activity: highest concentrations (40 mg/kg b.w.); for Reduction of the effect of HFD on ALT activity: b87: dose not stated; for Decrease in AP enzymatic activity compared to disease group / Decrease in AST enzymatic activity compared to disease group: number: highest concentration (40 mg/kg b.w.), words: compound overall
Experimental: (§1) Studies were done using Wistar rats of female sex by the Institute of Pharmacology and Biochemistry at Minsk. The animals were 80–90 days old and weighed 180–200 g. They had free access to a liquid Lieber‐DeCarli (LDC) diet (Lieber et al., 2004) and were housed under standard conditions meaning a 12‐h light/dark cycle at 22 ± 2°C and 55 ± 5% humidity.
(§2) Group 1 was designated as the first control group; it was fed a normal standard solid diet. Group 2, as the second control group, was fed a standard amount of fat as a part of the liquid “physiological,” non‐high fat LDC diet. All other groups received the liquid ‘disease‐causing’ LDC diet (Table 2), including a high content of unsaturated fatty acids.
(§3) Both LDC diets were in a liquid form as produced by ssniff‐Spezialdiäten GmbH, Soest (Germany). The feed was provided over the entire experimental period of 16 weeks; however, the corresponding experimental substances were only administered in the last four weeks (Figure 3).
(§4) The experimental substances I‐ol, I‐an, and UDCA were dissolved in a 0.8% aqueous HPMC gel to obtain the following concentrations: (1) I‐ol at 0.4, 4, and 40 mg/kg body weight (b.w.), (2) I‐an at 0.4, 4, and 40 mg/kg b.w., and (3) UDCA at 40 mg/kg b.w. The Group‐2 and −3 rats received only HPMC as placebo. Each test encompassed 6–8 rats that were put up in a separate cage. The rats were fed ad libitum, and their intake per cage was controlled daily. In order to ensure an exact daily reproducible dosage, the experimental substances or only HPMC was administered intragastrically via oral gavage. Basically, the drug therapy of a chronic disease is the more efficient the higher the adherence of the affected patients. This is generally higher with peroral administration than with any other form of application. At the end of the experiment, the animals were sacrificed under fasting conditions, by aorta dissection and exsanguination, after anesthetizing with an intraperitoneal injection of 5% pentobarbital solution.
The activities of the liver enzymes aspartate aminotransferase (AST), alanine aminotransferase (ALT), alkaline phosphatase (AP), and γ‐glutamyl transferase (γ‐GT) as well as bilirubin and triglyceride levels in the serum were determined as described by the instructions of BIO‐LA‐tests kit (Erba Lachema, Brno, Czech Republic).

[2] = test system: HFD‐induced NASH rat model (serum); assay: Adipocytokines and glucose metabolism in serum, NASH rat model; format: in vivo, Wistar rats; settings: for Decrease in serum TNF‐α level compared to disease group / Decrease in serum leptin compared to disease group / Increase in serum adiponectin compared to disease group / Reduction of the effect of HFD on serum adiponectin / Reduction of the effect of HFD on serum leptin: average over doses (I‐ol, I‐an); for Reduction of the effect of HFD on serum adiponectin: UDCA 40 mg/kg b.w. (elevated the concentration by); for Reduction of the effect of HFD on serum leptin: UDCA 40 mg/kg b.w. (reduced leptin concentration); for Serum leptin above the reference value of control group 1: highest concentrations (40 mg/kg b.w.)
Experimental: as §1, §2, §3, §4
The concentrations of adiponectin and TNFα were measured using ELISA kits sold by BioCat GmbH (Heidelberg, Germany), whereas the one for determining leptin level was procured from BioVendor Laboratory Medicine Inc. (Brno, Czech Republic). Insulin concentration was determined using the radioimmunoassay kit RIO‐insulin‐PG‐J125 (IBOCH, Minsk, Belarus). Serum glucose level was determined based on the “Accu‐Check Active blood glucose” monitoring method developed by Roche‐Diagnostics.

[3] = serum, highest concentration (40 mg/kg b.w.)

| Structure (SMILES) | Inhibition of CYP2E1 (in words) (CYP2E1) | Decrease in serum bilirubin level compared to disease group ([1]; average over doses) | Decrease in γ‐GT enzymatic activity compared to disease group ([1]; serum) | Reduction of the effect of HFD on γ‐GT activity ([1]; serum) | Decrease in ALT enzymatic activity compared to disease group ([1]; serum) | Reduction of the effect of HFD on ALT activity ([1]; serum) | Decrease in AP enzymatic activity compared to disease group ([1]; serum) | Decrease in AST enzymatic activity compared to disease group ([1]; serum) | Decrease in serum TNF‐α level compared to disease group ([2]; UDCA 40 mg/kg b.w.) | Decrease in serum leptin compared to disease group ([2]; UDCA 40 mg/kg b.w.) | Increase in serum adiponectin compared to disease group ([2]; UDCA 40 mg/kg b.w.) | Reduction of the effect of HFD on serum adiponectin [2] | Reduction of the effect of HFD on serum leptin [2] | Serum leptin above the reference value of control group 1 [2] | further results |
| --- | --- | --- | --- | --- | --- | --- | --- | --- | --- | --- | --- | --- | --- | --- | --- |
| CCCCCCCCCCCCn1ccnc1 [I‐an, 1‐imidazolyldodecane] | strong inhibitors of CYP2E1 | no therapeutic effect | 35% | 86% | 20% | 66% and ~70% | 21% | 21% | not significant | 18% | 31% | 38% | 62% | 1% | Dose dependence of the effect on ALT activity ([1]; 0.4, 4, 40 mg/kg b.w.): weak, significant (p < 0.05), linear, dose‐dependent effect; Dose dependence of the effect on AP activity ([1]; 0.4, 4, 40 mg/kg b.w.): weak but significant (p < 0.05), linear, dose‐dependent effect; Dose dependence of the effect on AST activity ([1]; 0.4, 4, 40 mg/kg b.w.): moderate, very highly significant (p < 0.001), linear, dose‐dependent effect; Reduction of the effect of HFD on AP activity [1, 3]: 89%; Reduction of the effect of HFD on AST activity [1, 3]: 92% and 90%; Dose dependence of the effect on serum adiponectin ([2]; 0.4, 4, 40 mg/kg b.w.): weak, significant (p < 0.05) linear dose‐dependent effect; Dose dependence of the effect on serum leptin ([2]; 0.4, 4, 40 mg/kg b.w.): weak yet significant (p < 0.05) linear dose‐dependent effect |
| OCCCCCCCCCCCCn1ccnc1 [I‐ol, 12‐imidazolyl‐1‐dodecanol] | strong inhibitors of CYP2E1 | 14% | 34% | 84% | 16% | 55% and ~70% | no therapeutic effect | no therapeutic effect | 49% | 22% | 64% | 78% | 75% | 3% | Binding strength to CYP2E1 (rank) (CYP2E1): highest affinity; Dose dependence of the effect on γ‐GT activity ([1]; 0.4, 4, 40 mg/kg b.w.): moderate but very highly significant (p < 0.001), linear, dose‐dependent effect; Serum bilirubin below the levels measured in the disease group and the two control groups ([1]; average over doses): more than 10%; Reduction of the effect of HFD on serum TNF‐α level ([2]; average over doses (I‐ol), UDCA 40 mg/kg b.w.): 66%; Serum adiponectin above the reference value of control group 1 ([2]; highest concentration (40 mg/kg b.w.)): 4% |

From publication PMC7995547, “ω‐Imidazolyl‐alkyl derivatives as new preclinical drug candidates for treating non‐alcoholic steatohepatitis” (Physiological Reports, 2021)
